According to publication PMC8748766, “The catalytic activity of TCPTP is auto-regulated by its intrinsically disordered tail and activated by Integrin alpha-1” (Nature Communications, 2022):

How the values were obtained:
TCPTP [1] = target: T1, TCPTP (Homo sapiens, UniProt P17706); assay: Kinetics of TCPTP with saturating ITGA1 peptide, pEGFR peptide-1 substrate; format: biochemical; conditions: TCPTP saturated with ITGA1 peptide (ITGA1_TR 1 μM; ITGA1_FCT 25 μM), mean ± SE, n = 9
T1 construct: fragments of TCPTP (residues: 1–387); His6 (N, cleaved yes); made in house; host or cells: E. coli BL21 (DE3) RIL
T1 sequence (P17706 1-387 isoform P17706-2): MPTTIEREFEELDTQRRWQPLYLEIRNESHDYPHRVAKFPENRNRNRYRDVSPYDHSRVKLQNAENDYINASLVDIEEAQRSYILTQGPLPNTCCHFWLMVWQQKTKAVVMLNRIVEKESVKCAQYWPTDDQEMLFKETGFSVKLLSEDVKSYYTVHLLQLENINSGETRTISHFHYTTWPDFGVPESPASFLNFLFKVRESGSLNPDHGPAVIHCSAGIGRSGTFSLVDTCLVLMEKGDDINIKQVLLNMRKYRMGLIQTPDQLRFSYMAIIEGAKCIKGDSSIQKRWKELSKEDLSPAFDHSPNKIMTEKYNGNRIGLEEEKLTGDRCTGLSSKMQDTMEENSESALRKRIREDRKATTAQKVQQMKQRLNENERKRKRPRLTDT
Excerpt: (§1) Polymerase chain reaction (PCR) fragments of TCPTP (residues: 1–387) TCPTPCAT (catalytic domain, residues: 1–288, 1–302 or 1–314), TCPTPTail (C-terminal tail, residues: 289–387 or 303–387) were amplified from full-length human TCPTP (TC45 isoform). TCPTP, TCPTPCAT (residues: 1–288, 1–314), and TCPTPTail (residues: 289–387) fragments were cloned into pMCSG7 including a N-terminal His6-tag using ligation-independent cloning. For all NMR experiments, the PCR fragments of TCPTP, TCPTPCAT (residues: 1–302) and TCPTPTail (residue: 303–387) were sub-cloned into pRP1B as previously described.
(§2) The rate of dephosphorylation of TCPTP and TCPTPCAT (residue 1–314) against 2 phosphotyrosine peptides derived from EGFR was monitored either with or without ITGA1 peptide (ITGA1_FCT & ITGA1_TR) in assay buffer (25 mM Hepes pH 7.4, 50 mM NaCl and 1 mM DTT). Lyophilized powder of all synthetic peptides was dissolved in assay buffer without DTT (phosphopeptides, 5 mM; ITGA1 peptides, 2 mM). For the kinetic analysis, the concentration of the enzyme was fixed at 1 nM while the substrate (phosphopeptides) concentration was varied from 2.5 μM to 160 μM in a total reaction volume of 200 μl. Effect of ITGA1 peptide on TCPTP & TCPTPCAT kinetics were assessed in saturated condition by adding an excess amount of ITGA1 peptide to the reaction mixture (ITGA1_TR = 1 μM; ITGA1_FCT = 25 μM). The reaction was incubated at 30 °C for 30 min and stopped by the addition of 30 μl phosphate reagent (phosphate colorimetric assay kit; Bio Vision) following the manufacturer’s instructions. Data were normalized and fitted using a nonlinear curve, and kinetics parameters (KM and kcat) were calculated from the Michaelis-Menten equation using Graph Pad Prism 9.0. All data points in the enzyme kinetics experiment were measured in triplicate, and the experiments were repeated three times.

TCPTPCAT [2] = target: T2, TCPTPCAT (Homo sapiens, UniProt P17706); assay: Kinetics of TCPTPCAT with saturating ITGA1 peptide, pEGFR peptide-1 substrate; format: biochemical; conditions: TCPTPCAT saturated with ITGA1 peptide (ITGA1_TR 1 μM), mean ± SE, n = 9
T2 construct: TCPTP and TCPTPCAT (residue 1–314) against 2 phosphotyrosine peptides derived from EGFR; His6 (N, cleaved yes); made in house; host or cells: E. coli BL21 (DE3) RIL
T2 sequence (P17706 1-314 isoform P17706-2): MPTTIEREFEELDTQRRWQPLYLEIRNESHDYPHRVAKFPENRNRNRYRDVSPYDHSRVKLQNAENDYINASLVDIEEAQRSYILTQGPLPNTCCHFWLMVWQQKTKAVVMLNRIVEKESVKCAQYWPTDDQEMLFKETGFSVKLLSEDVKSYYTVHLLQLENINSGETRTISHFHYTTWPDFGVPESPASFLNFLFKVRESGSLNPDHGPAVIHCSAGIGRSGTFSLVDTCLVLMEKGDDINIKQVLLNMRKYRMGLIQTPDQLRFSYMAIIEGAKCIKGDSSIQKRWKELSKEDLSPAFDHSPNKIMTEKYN
Excerpt: as §1, §2

TCPTP [3] = target: T1, TCPTP; assay: Kinetics of TCPTP with saturating ITGA1 peptide, pEGFR peptide-2 substrate; format: biochemical; conditions: TCPTP saturated with ITGA1 peptide (ITGA1_TR 1 μM; ITGA1_FCT 25 μM), mean ± SE, n = 9
Excerpt: as §1, §2

TCPTPCAT [4] = target: T2, TCPTPCAT; assay: Kinetics of TCPTPCAT with saturating ITGA1 peptide, pEGFR peptide-2 substrate; format: biochemical; conditions: TCPTPCAT saturated with ITGA1 peptide (ITGA1_TR 1 μM), mean ± SE, n = 9
Excerpt: as §1, §2

TCPTPCAT [5] = target: T2, TCPTPCAT; assay: NMR titration (2D HSQC/TROSY) binding to TCPTPCAT; conditions: 2D [1H,15N] TROSY, unlabeled ligand added
Excerpt: as §1
NMR data were collected on either Bruker NEO 600 MHz or 800 MHz spectrometers equipped with TCI HCN z-gradient cryoprobes at 298 K or 283 K. NMR measurements of TCPTP’s variant construct were recorded using (^1H,^15N)-, (^2H,^15N)-, (^1H,^15N,^13C), or (^2H,^15N,^13C)-labeled protein at a final concentration of 0.6 mM for backbone assignment or 0.1 mM for titration in NMR buffer and 90% H2O/10% D2O. The sequence-specific backbone assignments of TCPTP (residues 1–387), TCPTPCAT (residues 1–302), TCPTPTail (residues 303–387) and other variants were achieved using 3D triple resonance experiments including […], 3D HNCA, 3D HN(CO)CA, 3D HN(CO)CACB, and 3D HNCACB either as HSQC or TROSY variations. All NMR data were processed using TopSpin 4.0.5[44] and analyzed using either CARA (http://www.cara.nmr.ch) and/or CcpNMR[45].

[6] = pEGFR peptide-1, 1 nM enzyme, pH 7.4, 30 °C 30 min
[7] = pEGFR peptide-2, pH 7.4, 30 °C 30 min

**Q.** Which kcat (TCPTP [1]; [6]) does the source give for “RPLKKKMEKRPLKKKMEK [ITGA1_TR, ITGA1 tandem repeat (2x ITGA1_TCT): …]” here?
**A.** 26.2 ± 0.6 s⁻¹

**Q.** And the Km (TCPTP [1]; pEGFR peptide-1, pH 7.4, 30 °C)?
**A.** 15.9 ± 1.3 µM

**Q.** What about the kcat/Km (TCPTP [1]; pEGFR peptide-1) of the same sequence?
**A.** 1.6e+06 ± 100000 M⁻¹ s⁻¹

**Q.** What about the kcat (TCPTPCAT [2]; [6]) of the same sequence?
**A.** 31.1 ± 0.7 s⁻¹

**Q.** What about the Km (TCPTPCAT [2]; pEGFR peptide-1, pH 7.4, 30 °C) of the same sequence?
**A.** 23 ± 1.6 µM

**Q.** And the kcat/Km (TCPTPCAT [2]; pEGFR peptide-1)?
**A.** 1.3e+06 ± 100000 M⁻¹ s⁻¹

**Q.** What about the kcat (TCPTP [3]; [7]) of the same sequence?
**A.** 34.7 ± 2.3 s⁻¹

**Q.** And the Km (TCPTP [3]; pEGFR peptide-2)?
**A.** 40.9 ± 6.8 µM

**Q.** And the kcat/Km (TCPTP [3]; pEGFR peptide-2)?
**A.** 0.8 ± 0.1 µM -1s-1

**Q.** And the kcat (TCPTPCAT [4]; [7])?
**A.** 35.6 ± 0.6 s⁻¹

**Q.** And the Km (TCPTPCAT [4]; pEGFR peptide-2)?
**A.** 28.3 ± 1.3 µM

**Q.** What about the kcat/Km (TCPTPCAT [4]; pEGFR peptide-2) of the same sequence?
**A.** 1.2 ± 0.1 µM -1s-1

**Q.** And the “NMR titration: CSPs in (2H,15N)-labeled TCPTPCAT” value (TCPTPCAT [5])?
**A.** significant CSPs in the same residues
